Source: ChEMBL document CHEMBL3994622, “Design and synthesis of new RAF kinase-inhibiting antiproliferative quinoline derivatives. Part 2: Diarylurea derivatives” (Eur J Med Chem, 2017)

Experiments:
Format in all cases: functional
OVCAR-3 = assay: Growth inhibition of human OVCAR3 cells incubated for 48 hrs by sulforhodamine B assay; details: OVCAR-3, 48 h
HCT-15 = assay: Growth inhibition of human HCT15 cells incubated for 48 hrs by sulforhodamine B assay; details: HCT-15, 48 h
SR = assay: Growth inhibition of human SR cells incubated for 48 hrs by sulforhodamine B assay
SW-620 = assay: Growth inhibition of human SW620 cells incubated for 48 hrs by sulforhodamine B assay; details: SW-620, 48 h
UACC-257 = assay: Growth inhibition of human UACC257 cells incubated for 48 hrs by sulforhodamine B assay; details: UACC-257, 48 h
SK-OV-3 = assay: Growth inhibition of human SKOV3 cells incubated for 48 hrs by sulforhodamine B assay; details: SK-OV-3, 48 h
MDA-MB-468 = assay: Growth inhibition of human MDA-MB-468 cells incubated for 48 hrs by sulforhodamine B assay; details: MDA-MB-468, 48 h
A549 = assay: Growth inhibition of human A549/ATCC cells incubated for 48 hrs by sulforhodamine B assay; details: A549, 48 h
CCRF-CEM = assay: Growth inhibition of human CCRF-CEM cells incubated for 48 hrs by sulforhodamine B assay
BT-549 = assay: Growth inhibition of human BT549 cells incubated for 48 hrs by sulforhodamine B assay; details: BT-549, 48 h
MDA-MB-435 = assay: Growth inhibition of human MDA-MB-435 cells incubated for 48 hrs by sulforhodamine B assay; details: MDA-MB-435, 48 h
M14 = assay: Growth inhibition of human M14 cells incubated for 48 hrs by sulforhodamine B assay; details: M14, 48 h
HCT-116 = assay: Growth inhibition of human HCT116 cells incubated for 48 hrs by sulforhodamine B assay; details: HCT-116, 48 h
SNB-75 = assay: Growth inhibition of human SNB75 cells incubated for 48 hrs by sulforhodamine B assay; details: SNB-75, 48 h
786-0 = assay: Growth inhibition of human 786-0 cells incubated for 48 hrs by sulforhodamine B assay; details: 786-0, 48 h
COLO 205 = assay: Growth inhibition of human COLO205 cells incubated for 48 hrs by sulforhodamine B assay; details: COLO 205, 48 h
OVCAR-8 = assay: Growth inhibition of human OVCAR8 cells incubated for 48 hrs by sulforhodamine B assay; details: OVCAR-8, 48 h
PC-3 = assay: Growth inhibition of human PC3 cells incubated for 48 hrs by sulforhodamine B assay; details: PC-3, 48 h
HL-60(TB) = assay: Growth inhibition of human HL-60(TB) cells incubated for 48 hrs by sulforhodamine B assay; details: HL-60, 48 h
CAKI-1 = assay: Growth inhibition of human Caki1 cells incubated for 48 hrs by sulforhodamine B assay; details: CAKI-1, 48 h
KM12 = assay: Growth inhibition of human KM12 cells incubated for 48 hrs by sulforhodamine B assay; details: KM12, 48 h
SF-295 = assay: Growth inhibition of human SF295 cells incubated for 48 hrs by sulforhodamine B assay; details: SF-295, 48 h
NCI-H322M = assay: Growth inhibition of human NCI-H322M cells incubated for 48 hrs by sulforhodamine B assay
T47D = assay: Growth inhibition of human T47D cells incubated for 48 hrs by sulforhodamine B assay
OVCAR-4 = assay: Growth inhibition of human OVCAR4 cells incubated for 48 hrs by sulforhodamine B assay; details: OVCAR-4, 48 h
U-251 = assay: Growth inhibition of human U251 cells incubated for 48 hrs by sulforhodamine B assay; details: U-251, 48 h
SF-539 = assay: Growth inhibition of human SF539 cells incubated for 48 hrs by sulforhodamine B assay; details: SF-539, 48 h
NCI-H226 = assay: Growth inhibition of human NCI-H226 cells incubated for 48 hrs by sulforhodamine B assay; details: NCI-H226, 48 h
HT-29 = assay: Growth inhibition of human HT-29 cells incubated for 48 hrs by sulforhodamine B assay; details: HT-29, 48 h
NCI-H522 = assay: Growth inhibition of human NCI-H522 cells incubated for 48 hrs by sulforhodamine B assay; details: NCI-H522, 48 h
IGROV-1 = assay: Growth inhibition of human IGROV1 cells incubated for 48 hrs by sulforhodamine B assay; details: IGROV-1, 48 h
MOLT-4 = assay: Growth inhibition of human MOLT4 cells incubated for 48 hrs by sulforhodamine B assay; details: MOLT-4, 48 h
UACC-62 = assay: Growth inhibition of human UACC62 cells incubated for 48 hrs by sulforhodamine B assay; details: UACC-62, 48 h
MDA-MB-231 = assay: Growth inhibition of human MDA-MB-231 cells incubated for 48 hrs by sulforhodamine B assay; details: MDA-MB-231, 48 h
RPMI-8226 = assay: Growth inhibition of human RPMI8226 cells incubated for 48 hrs by sulforhodamine B assay; details: RPMI-8226, 48 h
OVCAR-5 = assay: Growth inhibition of human OVCAR5 cells incubated for 48 hrs by sulforhodamine B assay; details: OVCAR-5, 48 h
SF-268 = assay: Growth inhibition of human SF268 cells incubated for 48 hrs by sulforhodamine B assay; details: SF-268, 48 h
NCI-H23 = assay: Growth inhibition of human NCI-H23 cells incubated for 48 hrs by sulforhodamine B assay; details: NCI-H23, 48 h
Hs-578T = assay: Growth inhibition of human Hs 578T cells incubated for 48 hrs by sulforhodamine B assay
SK-MEL-28 = assay: Growth inhibition of human SK-MEL-28 cells incubated for 48 hrs by sulforhodamine B assay; details: SK-MEL-28, 48 h
HOP-62 = assay: Growth inhibition of human HOP62 cells incubated for 48 hrs by sulforhodamine B assay; details: HOP-62, 48 h
EKVX = assay: Growth inhibition of human EKVX cells incubated for 48 hrs by sulforhodamine B assay
ACHN = assay: Growth inhibition of human ACHN cells incubated for 48 hrs by sulforhodamine B assay
SK-MEL-2 = assay: Growth inhibition of human SK-MEL-2 cells incubated for 48 hrs by sulforhodamine B assay; details: SK-MEL-2, 48 h
SNB-19 = assay: Growth inhibition of human SNB19 cells incubated for 48 hrs by sulforhodamine B assay; details: SNB-19, 48 h
RXF 393 = assay: Growth inhibition of human RXF393 cells incubated for 48 hrs by sulforhodamine B assay; details: RXF 393, 48 h
SN12C = assay: Growth inhibition of human SN12C cells incubated for 48 hrs by sulforhodamine B assay
A498 = assay: Growth inhibition of human A498 cells incubated for 48 hrs by sulforhodamine B assay; details: A498, 48 h
NCI-H460 = assay: Growth inhibition of human NCI-H460 cells incubated for 48 hrs by sulforhodamine B assay; details: NCI-H460, 48 h
DU-145 = assay: Growth inhibition of human DU145 cells incubated for 48 hrs by sulforhodamine B assay; details: DU-145, 48 h
LOX IMVI = assay: Growth inhibition of human LOXIMVI cells incubated for 48 hrs by sulforhodamine B assay
SK-MEL-5 = assay: Growth inhibition of human SK-MEL-5 cells incubated for 48 hrs by sulforhodamine B assay; details: SK-MEL-5, 48 h
TK-10 = assay: Growth inhibition of human TK10 cells incubated for 48 hrs by sulforhodamine B assay; details: TK-10, 48 h
UO-31 = assay: Growth inhibition of human UO31 cells incubated for 48 hrs by sulforhodamine B assay; details: UO-31, 48 h
Malme-3M = assay: Growth inhibition of human MALME-3M cells incubated for 48 hrs by sulforhodamine B assay

CNC(=O)c1cc(Oc2ccc(NC(=O)Nc3ccc(Cl)c(C(F)(F)F)c3)cc2)ccn1 [SORAFENIB]
TGI (OVCAR-3): 3.98 µM
TGI (HCT-15): 3.16 µM
TGI (SR): 63.1 µM
TGI (SW-620): 5.01 µM
GI50 (UACC-257): 2 µM
TGI (SK-OV-3): 5.01 µM
GI50 (MDA-MB-468): 2 µM
TGI (MDA-MB-468): 5.01 µM
TGI (A549): 7.94 µM
GI50 (CCRF-CEM): 2 µM
TGI (CCRF-CEM): 5.01 µM
TGI (BT-549): 3.98 µM
TGI (MDA-MB-435): 5.01 µM
GI50 (M14): 2 µM
TGI (M14): 3.16 µM
TGI (HCT-116): 2.51 µM
TGI (SNB-75): 3.98 µM
TGI (786-0): 5.01 µM
GI50 (COLO 205): 2 µM
TGI (COLO 205): 3.16 µM
GI50 (OVCAR-8): 3.16 µM
TGI (OVCAR-8): 12.6 µM
GI50 (PC-3): 2 µM
TGI (PC-3): 5.01 µM
TGI (HL-60(TB)): 100 µM
TGI (CAKI-1): 12.6 µM
TGI (KM12): 2.51 µM
TGI (SF-295): 6.31 µM
TGI (NCI-H322M): 5.01 µM
TGI (T47D): 5.01 µM
TGI (OVCAR-4): 25.1 µM
GI50 (U-251): 2 µM
TGI (U-251): 3.16 µM
TGI (SF-539): 2.51 µM
GI50 (NCI-H226): 2 µM
TGI (NCI-H226): 3.16 µM
GI50 (HT-29): 2 µM
TGI (HT-29): 5.01 µM
GI50 (NCI-H522): 2 µM
TGI (NCI-H522): 5.01 µM
TGI (IGROV-1): 10 µM
TGI (MOLT-4): 100 µM
TGI (UACC-62): 2.51 µM
TGI (MDA-MB-231): 3.16 µM
TGI (RPMI-8226): 3.16 µM
TGI (OVCAR-5): 6.31 µM
TGI (SF-268): 3.98 µM
GI50 (NCI-H23): 2 µM
TGI (Hs-578T): 3.98 µM
TGI (SK-MEL-28): 2.51 µM
GI50 (HOP-62): 2 µM
TGI (HOP-62): 3.16 µM
TGI (EKVX): 19.9 µM
TGI (ACHN): 10 µM
GI50 (SK-MEL-2): 2 µM
TGI (SK-MEL-2): 6.31 µM
TGI (SNB-19): 3.98 µM
TGI (RXF 393): 5.01 µM
TGI (SN12C): 3.16 µM
TGI (A498): 3.16 µM
TGI (NCI-H460): 5.01 µM
TGI (DU-145): 7.94 µM
TGI (LOX IMVI): 2.51 µM
TGI (SK-MEL-5): 2.51 µM
TGI (TK-10): 10 µM
TGI (UO-31): 6.31 µM
GI50 (Malme-3M): 2 µM
TGI (Malme-3M): 39.8 µM
